Source: patent US6080791A, “Method of treating a viral condition by inhibiting membrane fusion” (priority 1992, dated 2000)
Like-named read-outs stand apart in the source and are kept apart here.

Experiments:
hemoglobin = test: Hb control (quenching of OD570 of hemoglobin); design: species or system human
[1] = molecular target: hemagglutinin (BHA), fusion peptide exposure (Influenza A virus (A/X-31(H3N2)), UniProt P03438); type: biochemical, C22 / X31 influenza virus (H3N2)
[2] = test system: hemagglutinin-mediated hemolysis of human red blood cells; test: Hemolysis (HEM) assay; type: cell-based, C22 influenza virus; human red blood cells
C22 virus in MDCK2 cells [3] = test system: C22 virus in MDCK2 cells
low pH BHA = test: SPA POST control (nonspecific quenching); design: species or system C22 / X31 influenza virus (H3N2)
Method: The compounds being screened by SPA are present during scintillation counting. Some of the chemicals, particularly those that are highly colored, quench the detection of radioactivity. A control ("POST") distinguishes whether apparent inhibition arises from inhibition of the conformational change or from nonspecific effects. The test compound is added to a sample of BHA that had previously been acidified and reneutralized. The mixture is then precipitated as usual. Since the BHA treated in this manner is known to be in the low pH conformation, a reduction in measurable cpm compared to controls with ligand omitted proves the compound interferes with the detection system.
^3 H-Leu BHA was diluted to 10,000 cpm (counts per minute) per 200 μl in MSSH buffer (10 mM HEPES, 10 mM MES, 10 mM succinate, 0.10 M NaCl, pH 7.0) containing 0.1% NP40. Protein was incubated with the specified concentration of trial compound for 25 minutes at RT. The same volume of solvent used to dissolve the compound was added to control samples and the final concentration of DMSO in all solutions was 0.67% v/v. A predetermined amount of 1N HAc was added to bring the reactions to the appropriate pH (usually pH 5.0). Following a 5 minute (unless specified otherwise) incubation at RT, reactions were reneutralized with 1N NaOH. For POST controls, compounds were added to the appropriate concentration after reneutralization. 200 μL aliquots of the protein solution were added to scintillation vials containing 100 μl protein A-SPA beads (Amersham), 5% fetal bovine serum (FBS), and antibody. Vials were incubated overnight at RT with constant shaking. Each reaction used 10 μl of fusion peptide antiserum diluted 1:10 with 50% glycerol. Cpm were detected in a Beckman LS3801 scintillation counter without addition of liquid scintillant.
Apparent inhibition due to nonspecific effects was quantitated from the POST controls with the equation:
observed cpm=true cpm*quench factor

in vitro = conditions: dog, mdck
Method: The ELISA-based assay described below (EIA antiviral assay) was used to measure antiviral activity. Cell viability was measured in parallel to distinguish inhibition of viral replication from toxicity.
Infections of MDCK2 cells with virus, compounds, and DMSO were set up identically as for the EIA assay. Following the 15 hour incubation, test compounds were washed away with PBS. 50 μl of MDCK2 growth media and 25 μl 2 mg/ml 3-(4,5-dimethylthiazol-2-yl)-2,5-diphenyl tetrazolium bromide (Sigma) in PBS were added to each well. Plates were returned to 37° C., 5% CO2 for 4 hrs. Crystals were broken up by vigorous mixing following addition of 80 μl isopropanol/0.04 N HCl. After incubation for 30 mins at RT, OD570 was read on an ELISA reader. % Inhibition is the % reduction of OD570 in the wells infected with compound compared to otherwise identical samples with compound omitted.

[4] = Method: Synthesis, purification, and characterization of selected compounds are summarized below. Stock solutions were prepared fresh daily. All solutions of the test compounds were prepared in dimethyl-sulfoxide (DMSO).
C22 virus in MDCK2 cells [5] = test: microbe, parasite or virus in culture; conditions: unidentified influenza virus; for inhibition at 1 µM / inhibition at 10 µM / inhibition at 100 µM: MDCK2, 15 h, read-out: infectivity % inhibition
[6] = test system: influenza-mediated syncytia formation, CV-1 cells
[7] = unidentified influenza virus, Erythrocyte, Table 7, read-out: HEM, negative log of IC50 (converted)
[8] = unidentified influenza virus, Erythrocyte, log conc -3 (M), read-out: hemolysis % ↓ OD
[9] = unidentified influenza virus, Erythrocyte, log conc -4 (M), read-out: hemolysis % ↓ OD
[10] = MDCK2, read-out: IC50 infectivity
[11] = MDCK2, read-out: INF, negative log of IC50 (converted)
[12] = unidentified influenza virus, Erythrocyte, 0.25 h, Table 6, 10^-3 = 1 mM, low pH 15 minutes, read-out: IC50 hemolysis
[13] = unidentified influenza virus, Erythrocyte, log conc -5 (M), read-out: hemolysis % ↓ OD
[14] = unidentified influenza virus, Erythrocyte, read-out: hemolysis % ↓ OD

Sequence of hemagglutinin (BHA), fusion peptide exposure (Influenza A virus (A/X-31(H3N2)), UniProt P03438) (P03438 whole entry, looked up, the tested form may be a part): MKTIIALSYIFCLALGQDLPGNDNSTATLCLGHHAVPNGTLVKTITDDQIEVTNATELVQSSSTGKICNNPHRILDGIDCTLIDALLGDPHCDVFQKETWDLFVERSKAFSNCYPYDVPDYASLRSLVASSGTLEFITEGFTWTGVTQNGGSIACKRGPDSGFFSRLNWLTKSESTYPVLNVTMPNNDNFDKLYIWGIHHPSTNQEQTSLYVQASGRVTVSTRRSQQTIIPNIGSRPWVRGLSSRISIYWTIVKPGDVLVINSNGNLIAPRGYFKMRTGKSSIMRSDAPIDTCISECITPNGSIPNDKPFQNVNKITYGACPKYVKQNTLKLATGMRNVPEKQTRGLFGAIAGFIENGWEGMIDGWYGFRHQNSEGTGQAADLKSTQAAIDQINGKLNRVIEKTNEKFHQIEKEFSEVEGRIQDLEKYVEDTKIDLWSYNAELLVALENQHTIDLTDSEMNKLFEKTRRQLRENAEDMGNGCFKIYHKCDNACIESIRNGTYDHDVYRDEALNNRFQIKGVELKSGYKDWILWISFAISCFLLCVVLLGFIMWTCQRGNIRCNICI

| Compound | Hb control % ↓ OD (hemoglobin; log conc -3 (M)) [%] | inhibition of hemolytic activity [2] | cytotoxicity at 15 h, 100 µM (in vitro) [%] | Hb control % ↓ OD (hemoglobin; log conc -4 (M)) [%] | IC50 [2, 7] [µM] | inhibition at 1000 µM [2, 8] [%] | inhibition at 100 µM [2, 9] [%] | cytotoxicity at 15 h, 1 µM (in vitro) [%] | cytotoxicity at 15 h, 10 µM (in vitro) [%] | inhibition at 1 µM (C22 virus in MDCK2 cells [5]) [%] | inhibition at 10 µM (C22 virus in MDCK2 cells [5]) [%] | inhibition at 100 µM (C22 virus in MDCK2 cells [5]) [%] | IC50 (C22 virus in MDCK2 cells [5]; [11]) [µM] | syncytia, Table 6 [6] | further results |
| --- | --- | --- | --- | --- | --- | --- | --- | --- | --- | --- | --- | --- | --- | --- | --- |
| 5,8-dihydro-5,8-methano-1,4-naphthalenediol [Compound 83] | 16.5 ± 2.1 | inhibits HA-mediated hemolysis | – | – | – | – | – | – | – | – | – | – | – | – | SPA activity [1]: significant activity; hemolysis % ↓ OD ([2]; log conc -3 (M), 1000 µM): 67.0 ± 15.1%; hemolysis % ↓ OD ([2]; log conc -4 (M), 100 µM): 17.9 ± 20.0%; hemolysis % ↓ OD ([2]; log conc -5 (M), 10 µM): 11.3 ± 10.3%; infectivity % inhibition (C22 virus in MDCK2 cells [3]; log conc -3 (M)): 51.1 ± 28.3%; infectivity % inhibition (C22 virus in MDCK2 cells [3]; log conc -4 (M)): 33.1 ± 20.2%; infectivity % inhibition (C22 virus in MDCK2 cells [3]; log conc -5 (M)): 8.7 ± 6.7%; infectivity % inhibition (C22 virus in MDCK2 cells [3]; log conc -6 (M)): 12.3 ± 2.5%; % inhibition, POST (Table 1) (low pH BHA; 1 mM, POST control): 2.1% |
| Oc1ccc2ccccc2c1O [Compound 124, 1,2-dihydroxynaphthalene] | – | – | 80.5 | – | – | – | – | – | – | – | – | – | – | – | infectivity in Table 6 (C22 virus in MDCK2 cells [3]; Table 6): toxic; INF, words (Table 7) (C22 virus in MDCK2 cells [3]; Table 7): toxic |
| O=C1c2ccccc2C(=O)c2c(O)ccc(O)c21 [Compound 102, quinizarin] | – | – | – | – | – | – | – | – | – | – | – | – | – | – | inhibition in the SPA assay ([1]; 1 μM-1 mM): showed no inhibition; activity note in Table 7 ([1]; Table 7): inactive; solubility at 1 mM ([4]; 1 mM): only partially soluble at 1 mM |
| Oc1ccc(O)c2c1C1CCC2C1 [Compound 111, 3',6'-dihydroxybenzonorbornane] | 64.9 ± 0.5 | – | 41 ± 17 | 40.4 ± 1.3 | 100 to 1000 | 36.7 ± 0.6 | -6.9 ± 9.3 | 1 ± 5.8 | -1.6 ± 0.8 | 21.7 ± 4.9 | 57.4 ± 25.2 | 102 ± 10.6 | 10 | morph | activity rank among compounds tested [1]: most active; IC50 (C22 virus in MDCK2 cells [5]; [10]): 10 µM; % inhibition, POST control (low pH BHA; log conc -3 (M)): 13.3%; % inhibition, POST control (low pH BHA; log conc -4 (M)): 9.5% |
| O=c1[nH]c(=O)n(O)c2nc[nH]c12 [Compound 113, xanthine 3-N-oxide] | – | – | – | – | – | – | – | – | – | – | – | – | – | – | solubility in DMSO ([4]; DMSO): insoluble in DMSO |
| Cc1cc(O)c(C)cc1O [Compound 116, 2,5-dimethylhydroquinone] | 44.0 | did not | -23.6 ± 5 | 31.6 | > 1000 | 17.3 | 7.7 | 3.6 ± 4.5 | -9.4 ± 5 | 18.8 ± 1.7 | 42.8 ± 4.7 | 78.1 ± 10 | 10 to 100 | morph | SPA activity [1]: inactive in the SPA; IC50 [2, 12]: > 1000 µM; infectivity inhibition (C22 virus in MDCK2 cells [3]): inhibited infectivity |
| O=C(O)C1C=CCC2C(=O)C=CC(=O)C12 (centres unmarked) [Compound 91, 5,8-dioxo-1,4,4A,5,8,8A-hexahydro-1-naphthalene carboxylic acid] | 29.6 ± 2.5 | apparently inhibited hemolytic activity | -4.3 ± 7 | 26.8 ± 5.0 | – | 91 ± 14.6 | 60.5 ± 0.7 | -0.06 ± 5.1 | -2 ± 9.4 | -1.3 ± 4 | 6.5 ± 7 | 70.9 ± 39.8 | – | – | Hb control % ↓ OD (hemoglobin; log conc -5 (M)): 11%; Hb control % ↓ OD (hemoglobin; log conc -6 (M)): 3%; inhibition at 100 µM ([2]; unidentified influenza virus, Erythrocyte, 0.1 mM, pH 5.0, FIG. 8, read-out: Maximum inhibition of hemolysis): 61%; IC50 ([2]; unidentified influenza virus, Erythrocyte, Table 7, preliminary results, read-out: HEM, negative log of IC50 (preliminary results) (converted)): 100 to 1000 µM; inhibition at 10 µM [2, 13]: 13.2%; inhibition at 1 µM ([2]; unidentified influenza virus, Erythrocyte, log conc -6 (M), read-out: hemolysis % ↓ OD): -5.1%; IC50 (C22 virus in MDCK2 cells [5]; MDCK2, read-out: INF, negative log of IC50 (preliminary results) (converted)): 10 to 100 µM; % inhibition, POST control (low pH BHA; log conc -3 (M)): 54.5% |
| Cl.Nc1ccc(O)c2ccccc12 [Compound 121, 4-amino-1-naphthol hydrochloride] | – | – | 100 | – | – | – | – | – | – | – | – | – | – | – | Hb control % ↓ OD (hemoglobin): 68.0%; IC50 ([2]; unidentified influenza virus, Erythrocyte, 0.25 h, read-out: IC50 hemolysis): ≥ 1000 µM; IC50 ([2]; unidentified influenza virus, Erythrocyte, read-out: HEM, negative log of IC50 (converted)): ≥ 1000 µM; inhibition at 10 µM [2, 14]: -4.6 ± 0.1%; inhibition at 100 µM [2, 14]: 31.5 ± 7.8%; inhibition at 1000 µM [2, 14]: 116%; INF, words (Table 7) (C22 virus in MDCK2 cells [3]): toxic; infectivity in Table 6 (C22 virus in MDCK2 cells [3]): toxic |
| O=C1C=CC(=O)c2cc3ccccc3cc21 [Compound 114, 1,4-anthraquinone] | – | – | 102 | – | – | – | – | -4.3 ± 3.3 | 53.7 ± 2.1 | 0.2 ± 0.2 | 92.3 ± 12.7 | – | – | toxic | infectivity in Table 6 (C22 virus in MDCK2 cells [3]; Table 6): toxic; INF, words (Table 7) (C22 virus in MDCK2 cells [3]; Table 7): toxic |
| CC(C)(C)c1cc(O)ccc1O [Compound 117, tert-butylhydroquinone] | 17.8 | apparently inhibited hemolytic activity | -26.1 ± 3.3 | 9.9 ± 2.8 | 100 | 116 | 31.6 ± 6.9 | -8.4 ± 7.6 | -13.7 ± 2.8 | 7.5 ± 0.1 | 22.2 ± 13.2 | 53.7 ± 26.4 | 10 to 100 | – | Hb control % ↓ OD (hemoglobin; log conc -5 (M)): 7.9%; activity rank among compounds tested [1]: most active; IC50 [2, 12]: 100 µM; inhibition at 10 µM [2, 13]: 13.9%; inhibition of syncytia formation ([6]; 1 μM): Significant inhibition was not observed; inhibition of syncytia formation ([6]; 10 μM): completely abolished the ability of the virus to induce syncytia; % inhibition, POST control (low pH BHA; log conc -3 (M)): -3.4%; % inhibition, POST control (low pH BHA; log conc -4 (M)): 2.9%; % inhibition, POST control (low pH BHA; log conc -5 (M)): 9.1%; % inhibition, POST control (low pH BHA; log conc -6 (M)): 4.7% |
| Cc1c(O)ccc(O)c1C [Compound 99, 2,3-dimethylhydroquinone] | 27.8 | did not | 99.4 ± 0.4 | – | > 1000 | 28.7 | – | -4.2 ± 9 | -10.1 ± 10 | 26.2 ± 8.6 | 35.9 ± 5.2 | 114 ± 12 | > 10 | toxic | IC50 [2, 12]: > 1000 µM; IC50 (C22 virus in MDCK2 cells [5]; [10]): > 10 µM |
